Measurements taken from paper PMC3855626 (Biochemistry, 2013).
Values joined by “and” are separate entries in the source; they are usually repeats but may differ in a detail not shown here. Equal values may be shown once. Marks after values point to notes of the source that are not given here.

Tests used:
wild type M4 receptors = type: binding, human
M3 D114N/D148N [1] = target: T1, M3 D114N/D148N (Homo sapiens, UniProt P20309, D114N/D148N)
M2 wild type = M2 wild type (Homo sapiens, UniProt P08172); type: binding
M4 D112N = type: binding, human
M4 D78N/D112N [2] = target: T2, M4 D78N/D112N (Homo sapiens, UniProt P08173, D112N/D78N); type: binding
M4 D78N = type: binding, human
M2 D103N = M2 D103N (Homo sapiens, UniProt P08172, D103N); type: binding
guinea pig ileum = conditions: cited from earlier work
M3 D114N = type: binding, human
[3] = test system: M1 – M4 muscarinic receptors; type: binding, human
[4] = target: wild type M1 muscarinic receptors (Homo sapiens, UniProt P11229); type: binding
M2 D69N = type: binding, human
M2 D69N/D103N [5] = target: T3, M2 D69N/D103N (Homo sapiens, UniProt P08172, D103N/D69N); type: binding
M2 D69N/D103N [6] = target: T3, M2 D69N/D103N; assay: biochemical; type: binding
[7] = test system: cerebral muscarinic receptors; type: binding, rat
M3 D148N = type: binding, human
M3 D114N/D148N [8] = target: T1, M3 D114N/D148N; type: binding
M2 D103N + M2 D69N = type: binding, human
M3 D148N + M3 D114N = type: binding, human
M4 D78N/D112N [9] = target: T2, M4 D78N/D112N; type: binding; remark: listed apart in the source
M4 D78N/D112N [10] = target: T2, M4 D78N/D112N; assay: biochemical; type: binding
M4 receptors = type: binding, human
M4 D1 12N + M4 D78N = type: binding, human
M3 receptors = type: binding, human
M2 D69N/D103N [11] = target: T3, M2 D69N/D103N; type: binding; remark: listed apart in the source
wild type M4 receptor = wild type M4 receptor (Homo sapiens, UniProt P08173); assay: biochemical; type: binding
[12] = target: wild type M2 muscarinic receptors (Homo sapiens, UniProt P08172); type: binding
[13] = read-out: inhibition of [3H]NMS binding

T3 sequence (P08172 whole entry D69N/D103N, looked up): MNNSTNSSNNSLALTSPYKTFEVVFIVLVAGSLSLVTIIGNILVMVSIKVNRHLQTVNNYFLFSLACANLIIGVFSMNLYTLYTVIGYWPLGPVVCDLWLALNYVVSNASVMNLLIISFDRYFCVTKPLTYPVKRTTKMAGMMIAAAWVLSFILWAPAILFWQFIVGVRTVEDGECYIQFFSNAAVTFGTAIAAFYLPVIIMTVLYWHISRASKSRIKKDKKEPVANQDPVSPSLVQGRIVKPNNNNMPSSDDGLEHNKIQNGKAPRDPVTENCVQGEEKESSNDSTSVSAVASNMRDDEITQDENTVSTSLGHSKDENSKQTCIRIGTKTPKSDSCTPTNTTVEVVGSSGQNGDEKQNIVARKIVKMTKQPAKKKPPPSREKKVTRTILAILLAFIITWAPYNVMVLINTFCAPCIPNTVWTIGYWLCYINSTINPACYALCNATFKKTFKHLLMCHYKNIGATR
T2 sequence (P08173 whole entry D78N/D112N, looked up): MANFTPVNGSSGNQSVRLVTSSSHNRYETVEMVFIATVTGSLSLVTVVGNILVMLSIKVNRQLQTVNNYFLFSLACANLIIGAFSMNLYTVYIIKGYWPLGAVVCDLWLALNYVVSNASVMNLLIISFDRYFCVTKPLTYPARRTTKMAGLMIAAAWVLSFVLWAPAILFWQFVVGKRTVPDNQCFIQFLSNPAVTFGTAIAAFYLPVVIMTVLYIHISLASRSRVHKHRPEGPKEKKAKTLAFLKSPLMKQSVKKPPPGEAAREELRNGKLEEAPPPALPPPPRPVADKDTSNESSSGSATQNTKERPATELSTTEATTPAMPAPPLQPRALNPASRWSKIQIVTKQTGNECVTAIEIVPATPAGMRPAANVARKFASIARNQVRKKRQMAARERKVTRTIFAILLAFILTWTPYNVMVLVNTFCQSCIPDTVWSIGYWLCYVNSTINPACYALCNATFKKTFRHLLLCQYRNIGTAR
wild type M4 receptor, sequence (P08173 whole entry): as the sequence (P08173 whole entry D78N/D112N, looked up) above, with N78D, N112D counted along it
M2 wild type, sequence (P08172 whole entry): as the sequence (P08172 whole entry D69N/D103N, looked up) above, with N69D, N103D counted along it
T1 sequence (P20309 whole entry D114N/D148N, looked up): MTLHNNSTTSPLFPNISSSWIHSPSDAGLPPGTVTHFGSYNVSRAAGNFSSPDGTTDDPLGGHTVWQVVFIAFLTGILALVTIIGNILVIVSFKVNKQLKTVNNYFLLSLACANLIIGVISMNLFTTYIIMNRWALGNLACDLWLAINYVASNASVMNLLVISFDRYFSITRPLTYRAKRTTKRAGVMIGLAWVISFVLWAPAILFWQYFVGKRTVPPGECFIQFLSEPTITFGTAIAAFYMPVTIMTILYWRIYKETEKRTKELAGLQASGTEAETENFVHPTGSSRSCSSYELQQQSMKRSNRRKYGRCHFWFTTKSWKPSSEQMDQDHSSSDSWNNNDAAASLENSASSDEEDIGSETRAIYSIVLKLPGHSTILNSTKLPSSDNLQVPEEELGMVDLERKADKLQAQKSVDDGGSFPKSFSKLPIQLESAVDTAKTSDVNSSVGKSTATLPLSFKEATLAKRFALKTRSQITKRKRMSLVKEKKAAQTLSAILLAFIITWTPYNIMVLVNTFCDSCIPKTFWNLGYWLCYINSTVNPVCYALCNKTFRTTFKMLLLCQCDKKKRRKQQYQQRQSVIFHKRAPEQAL
wild type M1 muscarinic receptors, sequence (P11229 whole entry): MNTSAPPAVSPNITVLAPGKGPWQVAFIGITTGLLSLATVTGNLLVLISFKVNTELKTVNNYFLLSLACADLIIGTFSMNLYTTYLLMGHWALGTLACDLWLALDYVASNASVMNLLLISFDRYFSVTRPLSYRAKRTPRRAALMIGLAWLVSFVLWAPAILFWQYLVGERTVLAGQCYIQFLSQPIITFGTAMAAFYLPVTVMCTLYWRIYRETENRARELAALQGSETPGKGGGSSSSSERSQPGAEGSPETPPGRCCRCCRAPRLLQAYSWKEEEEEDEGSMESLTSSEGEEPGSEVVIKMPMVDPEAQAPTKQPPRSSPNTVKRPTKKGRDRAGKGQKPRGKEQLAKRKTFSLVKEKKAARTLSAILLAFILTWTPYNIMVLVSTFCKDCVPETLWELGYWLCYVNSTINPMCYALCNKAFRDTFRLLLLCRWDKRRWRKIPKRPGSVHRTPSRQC
M2 D103N, sequence (P08172 whole entry D103N, looked up): as the sequence (P08172 whole entry D69N/D103N, looked up) above, with N69D counted along it
wild type M2 muscarinic receptors, sequence (P08172 whole entry): as the sequence (P08172 whole entry D69N/D103N, looked up) above, with N69D, N103D counted along it

SMILES: CC(=O)OCC[N+](C)(C)C [Acetylcholine, acetylcholine]
- affinity relative to the aziridinium ion of AChM (wild type M4 receptors): five-fold higher affinity
- Hill slope of competition curve (M3 D114N/D148N [1]): 0.56
- Hill slope of competition curve (M2 wild type): 0.69
- affinity relative to the aziridinium ion of AChM (M2 wild type): about 15 fold

SMILES: CN(CC#CCOC(=O)Nc1cccc(Cl)c1)CCBr [BR384, 4-[(2-bromoethyl)methyl-amino]-2-butynyl N-(3-chlorophenyl)carbamate]
- Δ log K1 (M4 D112N): 0.65 ± 0.13
- alkylation (M4 D78N/D112N [2]): 44 ± 0.6%
- increase in affinity relative to wild type (M4 D78N): about 30 fold
- Δ log K1 (M4 D78N): −1.27 ± 0.11
- Δ log K1 (M2 D103N): 1.23 ± 0.26
- contractile action (guinea pig ileum): lack of contractile action
- increase in affinity relative to wild type (M3 D114N): ~5 fold
- Δ log K1 (M3 D114N): −0.69 ± 0.02
- affinity of the aziridinium ion relative to McN-A-343 [3]: four- to seven-fold higher affinity
- receptors alkylated after adding the stopping solution [4]: 28%
- increase in affinity relative to wild type (M2 D69N): about 30 fold
- Δ log K1 (M2 D69N): −1.39 ± 0.35
- Δ log K1 (M2 D69N/D103N [5]): −0.25 ± 0.25
- IC50 (M2 D69N/D103N [6]): 28.8 µM
- inhibition at 300 µM (M2 D69N/D103N [6]; [13]): 97 ± 1.3%
- rate of recovery of [3H]NMS binding [7]: negligible
- Δ log K1 (M3 D148N): 1.17 ± 0.07
- Δ log K1 (M3 D114N/D148N [8]): 0.75 ± 0.12
- Δ log K1 (M2 D103N + M2 D69N): −0.17 ± 0.43
- Δ log K1 (M3 D148N + M3 D114N): 0.48 ± 0.08
- Δ log K1 (M4 D78N/D112N [9]): 0.69 ± 0.32 ^c
- IC50 (M4 D78N/D112N [10]): 69.2 µM
- inhibition at 300 µM (M4 D78N/D112N [10]; [13]): 88 ± 0.7%
- maximum estimate of b (M4 receptors): 0.085
- Δ log K1 (M4 D1 12N + M4 D78N): −0.62 ± 0.17
- maximum estimate of b (M3 receptors): 0.067
- alkylation (M2 D69N/D103N [11]): 48 ± 4.2%
- average estimate of k1 (wild type M4 receptor): 0.82 min⁻¹
- b (proportion of receptors that can bind [3H]NMS but not be alkylated) (wild type M4 receptor): 7.7 ± 1.8% and 7.7%
- k1 (rate constant for alkylation) (wild type M4 receptor): 0.93 ± .020 min⁻¹
- rate constant (k1) (wild type M4 receptor): 0.99 ± 0.045 min⁻¹ and 1.05 ± 0.10 min⁻¹ and 0.75 ± 0.06 min⁻¹ and 0.74 ± 0.086 min⁻¹
- Kd (wild type M4 receptor; average estimate of log K1): 8.71 µM
- Kd (wild type M4 receptor; log K1 (dissociation constant of the aziridinium ion)): 8.91 µM
- Kd (wild type M4 receptor; log dissociation constant (log K1)): 12.3 µM and 7.94 µM and 6.76 µM
- receptors alkylated after adding the stopping solution [12]: 28%
